This is an account of results in patent US20240262848A1, “HETEROCYCLIC COMPOUNDS, COMPOSITIONS THEREOF, AND METHODS OF TREATMENT THEREWITH” (BeiGene, Ltd., priority 2022, published 2024).

pIC50: −log10 of the molar value.

Experiment [1] addresses GST-tagged GDP-loaded KRAS G12V (amino acids 1-169) (Homo sapiens, UniProt P01116, G12V). The experiment in a line: KRAS G12V probe displacement assay (TR-FRET). The format is binding. The conditions noted are these: Table 4; KRAS G12V 2 nM, biotinylated probe 2 2.5 nM. The protocol:
Plates are incubated at 24 °C for 1 hr. […] After 1 hr incubation at 24° C.
A general note: TR-FRET usually uses a lanthanide donor and a delayed reading to cut background.

Experiment [2] has as its system pERK1/2(THR202/TYR204) level in SW620 cell line. The experiment can be described thus: KRAS G12V pERK assay in SW620 cells (HTRF). The experiment is classed as cell-based. The conditions noted are these: Homo sapiens, SW-620, Table 4, 2 hrs compound treatment. The protocol:
SW620 cell line was used in this study. Cells were maintained in RPMI 1640 supplemented with 10% fetal bovine serum (Thermo Fisher), 50 units/mL penicillin and streptomycin (Thermo Fisher) and kept at 37° C. in a humidified atmosphere of 5% CO2 in air. Cells were reinstated from frozen stocks that were laid down within 30 passages from the original cells purchased. 40000 cells per well were seeded into a 96-well plate and incubated overnight. Cells were treated with a 10-point dilution series. The final compound concentration is from 0 to 10 μM. After 2 hrs compound treatment, cells were lysed, and the pERK1/2(THR202/TYR204) level in the cell lysates was detected by HTRF kit (Cisbio). In brief, a total of 16 μL of cell lysate from each well of a 96-well plate was transferred to a 384-well white assay plate. Lysate from each well was incubated with 2 μL of Eu3+-cryptate (donor) labeled anti-phospho-ERK1/2 and 2 μL of D)2 (acceptor) labeled anti-phospho-ERK1/2 antibodies (Cisbio) overnight in dark at room temperature. When donor and acceptor are in close proximity, excitation of the donor with laser triggers a Fluorescence Resonance Energy Transfer (FRET) towards the acceptor, which in turn fluoresces at 655 nm wavelength. FRET signals were measured using a PHERAstar FSX reader (BMG Labtech). IC50 determination was performed by fitting the curve of percent inhibition versus the log of the inhibitor concentration using Dotmatics.

Sequence of GST-tagged GDP-loaded KRAS G12V (amino acids 1-169) (P01116 1-169 isoform P01116-2 G12V): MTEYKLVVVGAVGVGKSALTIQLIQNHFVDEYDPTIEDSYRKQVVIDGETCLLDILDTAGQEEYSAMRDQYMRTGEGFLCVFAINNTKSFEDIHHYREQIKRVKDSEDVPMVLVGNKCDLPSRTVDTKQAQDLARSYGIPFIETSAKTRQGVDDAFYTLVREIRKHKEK

Take `CC1COc2nc(-c3cc(N)cc(Cl)c3C(F)(F)F)c(F)c3nc(OC[C@@]45CCCN4C[C@H](F)C5)nc(c23)N(C)C1` (stereo partly drawn) [Example 15, 3-chloro-5-(4-fluoro-2-(((2R,7aS)-2-fluorotetrahydro-1H-pyrrolizin-7a(5H)-yl)methoxy)-9,11-dimethyl-8,9,10,11-tetrahydro-7-oxa-1,3,6,11 tetraazacycloocta[de]naphthalen-5-yl)-4-(trifluoromethyl)aniline]: the pIC50 (in general, the IC50 on a negative log10 scale, so that one unit is a factor of ten) in experiment [1] is 8.07; in experiment [2] it was 6.43.

Consider `CCc1c(F)ccc2cc(O)cc(-c3nc4c5c(nc(OC[C@@]67CCCN6C[C@H](F)C7)nc5c3F)N(C)C(C)CCO4)c12` (stereo partly drawn) [Example 16, 5-ethyl-6-fluoro-4-(4-fluoro-2-(((2R,7aS)-2-fluorotetrahydro-1H-pyrrolizin-7a(5H)-yl)methoxy)-10,11-dimethyl-8,9,10,11-tetrahydro-7-oxa-1,3,6,11-tetraazacycloocta[de]naphthalen-5-yl)naphthalen-2-ol], for which the figures for the pIC50 in experiment [1] and in experiment [2] were 8.85 and 7.30, respectively.

With `CN1c2nc(OC[C@@]34CCCN3C[C@H](F)C4)nc3c(F)c(-c4ccc(F)c5sc(N)c(C#N)c45)c(Cl)c(c23)OCC12COC2` [Example 18, 2-amino-4-(8′-chloro-10′-fluoro-2′-(((2R,7aS)-2-fluorotetrahydro-1H-pyrrolizin-7a(5H)-yl)methoxy)-4′-methyl-4′H, 6′H-spiro[oxetane-3,5′-[1,4]oxazepino[5,6,7-de]quinazolin]-9′-yl)-7-fluorobenzo[b]thiophene-3-carbonitrile], the pIC50 in experiment [1] was 9.08; in experiment [2], 7.26.

Consider `C[C@@H]1CCOc2c(Cl)c(-c3ccc(F)c4sc(N)c(C#N)c34)c(F)c3nc(OC[C@@]45CCCN4C[C@H](F)C5)nc(c23)N1C` [Example 19, 2-amino-4-((R)-9-chloro-11-fluoro-2-(((2R,7aS)-2-fluorotetrahydro-1H-pyrrolizin-7a(5H)-yl)methoxy)-4,5-dimethyl-4,5,6,7-tetrahydro-[1,5]oxazocino[4,3,2-de]quinazolin-10-yl)-7-fluorobenzo[b]thiophene-3-carbonitrile], for which the pIC50 in experiment [1] was 9.19; in experiment [2], 7.66.

`CC1CC(C)N(C)c2nc(OC[C@@]34CCCN3C[C@H](F)C4)nc3c(F)c(-c4cc(N)cc(Cl)c4C(F)(F)F)nc(c23)O1` (stereo partly drawn) [Example 21, 3-chloro-5-(4-fluoro-2-(((2R,7aS)-2-fluorotetrahydro-1H-pyrrolizin-7a(5H)-yl)methoxy)-8,10,11-trimethyl-8,9,10,11-tetrahydro-7-oxa-1,3,6,11-tetraazacycloocta[de]naphthalen-5-yl)-4-(trifluoromethyl)aniline]: the pIC50 in experiment [1] was 8.77; in experiment [2] it was 7.59.

As to `CC1COc2nc(-c3cc(N)cc(Cl)c3C(F)(F)F)c(F)c3nc(OC[C@@]45CCCN4C[C@H](F)C5)nc(c23)N1C` (stereo partly drawn) [Example 22, 3-chloro-5-(4-fluoro-2-(((2R,7aS)-2-fluorotetrahydro-1H-pyrrolizin-7a(5H)-yl)methoxy)-9,10-dimethyl-9,10-dihydro-8H-7-oxa-1,3,6,10-tetraazacyclohepta[de]naphthalen-5-yl)-4-(trifluoromethyl)aniline], the pIC50 in experiment [1] is 8.17; in experiment [2], 6.52.

For the molecule `CN1c2nc(OC[C@@]34CCCN3C[C@H](F)C4)nc3c(F)c(-c4cc(N)cc(Cl)c4C(F)(F)F)nc(c23)OCC12COC2` [Example 23, 3-chloro-5-(4-fluoro-2-(((2R,7aS)-2-fluorotetrahydro-1H-pyrrolizin-7a(5H)-yl)methoxy)-10-methyl-8H, 10H-7-oxa-1,3,6,10-tetraazaspiro[cyclohepta[de]naphthalene-9,3′-oxetan]-1(10a), 2,3a, 3a^1(6a), 5-pentaen-5-yl)-4-(trifluoromethyl)aniline], the pIC50 in experiment [1] is 8.04; in experiment [2], 6.47.

For the molecule `CN1c2nc(OC[C@@]34CCCN3C[C@H](F)C4)nc3c(F)c(-c4cc(N)cc(Cl)c4C(F)(F)F)nc(c23)OCC12CCC2` [Example 24, 3-chloro-5-(4′-fluoro-2′-(((2R,7aS)-2-fluorotetrahydro-1H-pyrrolizin-7a(5H)-yl)methoxy)-10′-methyl-8′H, 10′H-7′-oxa-1′,3′,6′,10′-tetraazaspiro[cyclobutane-1,9′-cyclohepta[de]naphthalen]-1′(10a′), 2′,3a′, 3 al′(6a′), 5′-pentaen-5′-yl)-4-(trifluoromethyl)aniline], the negative-log IC50 (pIC50) is 8.59 in experiment [1] and 7.02 in experiment [2].

For the molecule `C[C@@H]1CCOc2nc(-c3cc(N)cc(Cl)c3C(F)(F)F)c(F)c3nc(OC[C@@]45CCCN4C[C@H](F)C5)nc(c23)N1C` [Example 26, 3-chloro-5-((R)-4-fluoro-2-(((2R,7aS)-2-fluorotetrahydro-1H-pyrrolizin-7a(5H)-yl)methoxy)-10,11-dimethyl-8,9,10,11-tetrahydro-7-oxa-1,3,6,11-tetraazacycloocta[de]naphthalen-5-yl)-4-(trifluoromethyl)aniline], the pIC50 in experiment [1] was 9.10; in experiment [2] it was 7.49.

For `CN1c2nc(OC[C@@]34CCCN3C[C@H](F)C4)nc3c(F)c(-c4ccc(F)c5sc(N)c(C#N)c45)c(Cl)c(c23)OCCC12COC2` [Example 28, 2-amino-4-(9′-chloro-11′-fluoro-2′-(((2R,7aS)-2-fluorotetrahydro-1H-pyrrolizin-7a(5H)-yl)methoxy)-4′-methyl-6′,7′-dihydro-4′H-spiro[oxetane-3,5′-[1,5]oxazocino[4,3,2-de]quinazolin]-10′-yl)-7-fluorobenzo[b]thiophene-3-carbonitrile], the pIC50 in experiment [1] is 8.60; in experiment [2], 6.69.

For `CN1c2nc(OC[C@@]34CCCN3C[C@H](F)C4)nc3c(F)c(-c4cc(N)cc(Cl)c4C(F)(F)F)nc(c23)OCC12CC2` [Example 29, 3-chloro-5-(4-fluoro-2-(((2R,7aS)-2-fluorotetrahydro-1H-pyrrolizin-7a(5H)-yl)methoxy)-10-methyl-8H, 10H-7-oxa-1,3,6,10-tetraazaspiro[cyclohepta[de]naphthalene-9,1′-cyclopropan]-1(10a), 2,3a, 3 al(6a), 5-pentaen-5-yl)-4-(trifluoromethyl)aniline], the pIC50 in experiment [1] was 9.02; in experiment [2] it was 7.25.

Regarding `CN1c2nc(OC[C@@]34CCCN3C[C@H](F)C4)nc3c(F)c(-c4cc(N)cc(Cl)c4C(F)(F)F)nc(c23)OCCC12CCC2` [Example 32, 3-chloro-5-(4′-fluoro-2′-(((2R,7aS)-2-fluorotetrahydro-1H-pyrrolizin-7a(5H)-yl)methoxy)-11′-methyl-8′,9′-dihydro-11′H-7′-oxa-1′,3′,6′,11′-tetraazaspiro[cyclobutane-1,10′-cycloocta[de]naphthalen]-1′(11a′), 2′,3a′, 3 al′(6a′), 5′-pentaen-5′-yl)-4-(trifluoromethyl)aniline], the figures for the pIC50 in experiment [1] and in experiment [2] were 8.47 and 6.88, respectively.

For the molecule `CN1c2nc(OC[C@@]34CCCN3C[C@H](F)C4)nc3c(F)c(-c4cc(N)cc(Cl)c4C(F)(F)F)nc(c23)OCCC12CC(O)C2` (stereo partly drawn) [Example 33, 5′-(5-amino-3-chloro-2-(trifluoromethyl)phenyl)-4′-fluoro-2′-(((2R,7aS)-2-fluorotetrahydro-1H-pyrrolizin-7a(5H)-yl)methoxy)-11′-methyl-8′,9′-dihydro-11′H-7′-oxa-1′,3′,6′,11′-tetraazaspiro[cyclobutane-1,10′-cycloocta[de]naphthalen]-1′(11a′), 2′0.3a′, 3 al′(6a′), 5′-pentaen-3-ol], the values for the pIC50 in experiment [1] and in experiment [2] were 9.41 and 7.77, respectively.

Consider `CN1c2nc(OC[C@@]34CCCN3C[C@H](F)C4)nc3c(F)c(-c4cc(N)cc(Cl)c4C(F)(F)F)nc(c23)OC2CCCC21` (stereo partly drawn) [Example 45, 3-chloro-5-((7a, 10a-trans)-4-fluoro-2-(((2R,7aS)-2-fluorotetrahydro-1H-pyrrolizin-7a(5H)-yl)methoxy)-11-methyl-7a, 8,9,10,10a, 11-hexahydro-7-oxa-1,3,6,11-tetraazanaphtho[1,8-fg]azulen-5-yl)-4-(trifluoromethyl)aniline], for which the pIC50 in experiment [1] is 8.57; in experiment [2], 7.09.

For the molecule `CN1c2nc(OC[C@@]34CCCN3C[C@H](F)C4)nc3c(F)c(-c4cc(N)cc(Cl)c4C(F)(F)F)nc(c23)O[C@H]2CCCC[C@@H]21` [Example 46, 3-chloro-5-((7aS,11aS)-4-fluoro-2-(((2R,7aS)-2-fluorotetrahydro-1H-pyrrolizin-7a(5H)-yl)methoxy)-12-methyl-7a, 8,10,11,11a, 12-hexahydro-9H-7-oxa-1,3,6,12-tetraazapleiaden-5-yl)-4-(trifluoromethyl)aniline], the results for the pIC50 in experiment [1] and in experiment [2] were 9.32 and 7.43, respectively.

For the molecule `CN1c2nc(OC[C@@]34CCCN3C[C@H](F)C4)nc3c(F)c(-c4cc(N)cc(Cl)c4C(F)(F)F)nc(c23)O[C@H]2CCOC[C@@H]21` [Example 50, 3-chloro-5-((7aS,11aS)-4-fluoro-2-(((2R,7aS)-2-fluorotetrahydro-1H-pyrrolizin-7a(5H)-yl)methoxy)-12-methyl-7a, 8,11a, 12-tetrahydro-9H, 11H-7,10-dioxa-1,3,6,12-tetraazapleiaden-5-yl)-4-(trifluoromethyl)aniline], the pIC50 is 9.21 in experiment [1] and 7.55 in experiment [2].
